Test results from patent publication US20180127681A1, “GLYCOSYLATED AROMA- AND FRAGRANCE PRECURSORS AND FRAGRANCE PRODUCTS THAT CAN BE ACTIVATED” (Technische University Muenchen, priority 2015, published 2018).
Several values for one entry are separate records, joined by “and”; a condition that tells them apart may be missing. Equal entries are not always repeated.

Tests used:
FaGTs1-13 = experiment: In vitro glycosyltransferase assay with 14C UDP-glucose, substrates of FaGTs1-13; format: biochemical, Fragaria x ananassa; settings: FaGTs1-13, FIG. 11B, 1 h at 30° C.
Source text: In the search for efficient biocatalysts which can be particularly used for the production of aroma glycosides the UGT gene family of plant species Vitis vinifera (grape vine) and Fragaria x ananassa (strawberry) was examined. For this at first the gene sequences were searched that are strongly expressed in the fruits of the plant species. These were subsequently isolated, expressed in the host organism Escherichia coli, and the enzymatic activity toward different potential substrates was determined. At least three of the coding nucleic acid sequences (FaGTs1-5, FaGTs1-13 and VvdGT13, see appended sequences) catalyze the formation of aroma glycosides very efficiently.
In FIG. 11 the determination of the enzyme activity of FaGTs1-5 and FaGTs1-13 is shown.
The reaction was started by adding UDP-glucose and stopped after incubation with 1 ml n-butanol. After vortexing for at least 15 s the reaction mixture was centrifuged 2 min at 12 000×g for separation of the phases, and 800 μl of the upper organic phase containing the product were now transferred to 2 ml scintillation cocktail (Ultima-Flo AF, PerkinElmer).

[1] = Baking tests, dough of three kinds of bread with 100 ppm geranyl glucoside (summary); format: physicochemical
Procedure: The proof-of-principle was now shown successfully for the example bread. Dough from three different kinds of bread was treated with the aroma precursor geranyl glucoside. […] This conversion is ascribed to the biggest extent to pyrolytic processes (about 5%) during the ten-minute baking process at 230° C. and partly on the enzyme-catalyzed hydrolytic processes (about […]) during the preparation of yeast-ß-glucosidase.

[2] = Baking test 1, flour dough, release of geraniol by GC-MS; format: physicochemical; settings: for conversion of GG to geraniol, mean value: triplicate, from 3.2 μmol GG in 17 g bread
Source text: Dough blanks of 10 g flour each were used as base. A negative control (flour, salt and water), three samples (added geranyl glucoside), a recovery (addition of geraniol to the bread prior to freezing according to a postulated conversion of glucoside of about 6% in order to determine the losses during the analytical process) and a control for geraniol in the glucoside solution (addition of an aliquot amount of glucoside only after the baking process to determine the content of geraniol). Several process steps are carried out according to standardized instructions, for each of the six blanks separately.
For a blank/blind test (1) 9.98 g well-mixed flour were weighed into a glass vessel and 0.2 g NaCl were added. The mixture was at first mixed in a dry state for 1 min in a farinograph (=kneader) and kneaded for 8 min after pipetting 6.4 ml dist. water. The dough was taken out quickly and weighed for a first time (E1). A first fermenting period of […] at 31° C. took place in a water vapor saturated proofing cabinet. After taking the dough out of the cabinet a second weighing (E2) took place as well as the homogenization. The ball-shaped blank was put into a round molder (“Rundwirker”) and turned for 10 turns with a superimposed pestle. It was drawn through a pasta/noodle roller, folded two times without inclusion of air and again turned in the round molder for 20 turns. Finally a forming by hand was performed. After the homogenization a second fermentation period of 35 min follows.
For samples (2a-c) additionally 10 μl of a geranyl glucoside (GG) solution (c=98 mg/ml) were quickly pipetted after the addition of water into the kneader.
Baking took place on a tray in the oven for 10 min at 230° C. Before and after putting the samples vapor was put into the closed oven, respectively (spraying and evaporating of 25 ml dist. H2O).
The baked bread was left standing for 60 min at room temperature and subsequently frozen in liquid nitrogen. Storage of the breads took place at −18° C. until the conditioning/preparation. […]

[3] = Baking test 2, simple yeast dough, release of geraniol by GC-MS; format: physicochemical
Procedure: As samples dough blanks of 10 g flour each were used. A negative control (flour, salt, sugar, yeast and water), three samples (additionally geranyl glucoside) and a recovery (addition of geraniol to the bread before freezing according to a postulated conversion of glucoside of 6% in order to determine losses during the analytical procedure) were used. Several process steps were carried out according to standardized specifications, separate for each of the five blanks.
For a blank/blind test (i) 9.98 g well-mixed flour were weighed into a glass vessel. 0.2 g NaCl and 0.1 g sucrose were added and the mixture was put in the kneader. An addition of 0.7 g (cooled) baking yeast directly to the kneader followed. The mixture was at first kneaded in a dry state for 1 min and kneaded for 8 min after pipetting 6.3 ml dist. H2O. All further steps including the work-up and sample taking ware carried out according to the sample with flour dough (1). In the samples (2a-c) 10 μl GG-solution were pipetted directly after the addition of water to the kneader. The preparation of the recovery (3) was carried out analogous to the blind sample. After cooling for one hour 170 μl geraniol solution were injected herein into the breadcrumb directly before freezing with liquid nitrogen.

[4] = Baking test 3, standard yeast dough, release of geraniol by GC-MS; format: physicochemical
Procedure: As samples dough blanks of 10 g flour each were used. A negative control (flour, salt, sugar, fat, yeast, L-ascorbic acid and water), three samples (additionally geranyl glucoside) and a recovery (addition of geraniol to the bread before freezing according to a postulated conversion of glucoside of 6% in order to determine losses during the analytical procedure) were used. Several process steps were carried out according to standardized specifications, separate for each of the five blanks.
For a blank/blind test (i) 9.98 g well-mixed flour were weighed into a glass vessel. 0.2 g NaCl and 0.1 g sucrose and 0.1 g palm fat were added and the mixture was put in the kneader. An addition of 0.7 g (cooled) baking yeast directly to the kneader followed. The mixture was at first kneaded in a dry state for 1 min and kneaded for 8 min after pipetting 6.0 ml dist. H2O and 0.3 ml ascorbic acid solution.
All further steps including the work-up and sample taking ware carried out according to the sample with flour dough (1). In the samples (2a-c) 10 μl GG-solution were pipetted directly after the addition of water and ascorbic acid solution to the kneader. The preparation of the recovery (3) was carried out analogous to the blind sample. After cooling for one hour 170 μl geraniol solution were injected herein into the breadcrumb directly before freezing with liquid nitrogen.

conversion relative to furaneol (FaGTs1-13)	content of geraniol in bread ([1]; 100 ppm added, conversion of 6%)	conversion of glucoside to geraniol ([1]; addition of 100 ppm geranyl glucoside, ten-minute baking at 230° C.)	conversion ascribed to pyrolytic processes ([1]; ten-minute baking process at 230° C.)	content of geraniol in the baked bread [2]	conversion of GG to geraniol, mean value [2]	conversion of GG to geraniol, mean value ([2]; listed as GG)	content of geraniol in the bread [3]	conversion of GG to geraniol, mean value ([3]; samples 2a and 2c only, from 3.2 μmol GG in 17 g bread)	content of geraniol in the bread [4]	conversion of GG to geraniol, mean value ([4]; triplicate, from 3.2 μmol GG in 17 g bread)	SMILES
3 times	–	–	–	–	–	–	–	–	–	–	CCC1OC(C)=C(O)C1=O (centres unmarked) [homofuraneol]
–	1.7 mg/kg	about 6%	about 5%	1.40 mg/kg	4.8%	4.8% and 4.9%	1.77 mg/kg	6.1%	1.67 mg/kg	5.7%	CC(C)=CCC/C(C)=C/CO[C@@H]1O[C@H](CO)[C@@H](O)[C@H](O)[C@H]1O [geranyl glucoside]
